Assay results: publication PMC8344375 (Biochemistry, 2015)
“And” between values parts separate entries of the source, which are not always exact repeats. Equal entries are not always repeated. Where two headings read alike, the source gives them in different places.

How the values were obtained:
wt Tt H-NOX [1] = settings: cited from earlier work
[2] = tested on: 6c NO-heme-His complex in wt Cb H-NOX; type: binding, Clostridium botulinum
wt Tt H-NOX [3] = type: binding
wt Cb H-NOX [4] = type: binding
wt Cb H-NOX [5] = settings: cited from earlier work
sGC = settings: cited from earlier work

**Q.** Which “koff (NO)” value (wt Tt H-NOX [1]) does the source give for nitric oxide [NO] here?
**A.** Its value is 0.00056 s⁻¹.

**Q.** And the “k2 (quaternary complex to 5c NO-heme)” value [2]?
**A.** Its value is ~ 790 s^−1.

**Q.** What about the Kd ([2]; read-out: KD (reaction I, NO binding to 6c NO-heme-His)) of the same molecule?
**A.** Its Kd is ~570 µM.

**Q.** What about the Kd ([2]; read-out: KD of reaction I) of the same molecule?
**A.** Its Kd is 1100 µM.

**Q.** And the “koff (NO)” value (wt Tt H-NOX [3])?
**A.** The value was 0.0034 s⁻¹.

**Q.** And the “kon (NO)” value (wt Tt H-NOX [3])?
**A.** Its value is 1.5e+08 M⁻¹ s⁻¹.

**Q.** What about the Kd (wt Tt H-NOX [3]; read-out: KD (NO)) of the same molecule?
**A.** Its Kd is 0.023 nM.

**Q.** And the “NO dissociation rate, fast phase” value (wt Cb H-NOX [4])?
**A.** Its value is 0.011 s⁻¹.

**Q.** What about the “koff (NO)” value (wt Cb H-NOX [4]) of the same molecule?
**A.** Its value is 0.012 s⁻¹.

**Q.** What about the “koff of 5c NO-heme complex” value (wt Cb H-NOX [4]) of the same molecule?
**A.** Its value is 1.1 × 10^−3a s^−1.

**Q.** What about the “kon (NO)” value (wt Cb H-NOX [4]) of the same molecule?
**A.** The value was 1.5e+08 M⁻¹ s⁻¹.

**Q.** And the Kd (wt Cb H-NOX [4]; read-out: KD (NO))?
**A.** The Kd was 0.08 nM.

**Q.** And the “koff (NO)” value (wt Cb H-NOX [5])?
**A.** Its value is 3 × 10^−6c s^−1.

**Q.** And the “kon (NO)” value (wt Cb H-NOX [5])?
**A.** Its value is ~ 10^8c M^−1 s^−1.

**Q.** And the “koff for 5c NO-heme” value (sGC)?
**A.** Its value is 0.0006 s⁻¹.

**Q.** What about the “koff(NO) of 6c NO-sGC complex” value (sGC) of the same molecule?
**A.** The value was 27 s⁻¹.

**Q.** And the Kd (sGC; read-out: KD(NO)(6c))?
**A.** The Kd was 0.054 µM.

**Q.** With `[C-]#[O+]` [CO, Carbon monoxide] as the molecule, how does the “koff (CO)” value (wt Tt H-NOX [1]) read?
**A.** The value was 3.56^g s^−1.

**Q.** What about the “kon (CO)” value (wt Tt H-NOX [1]) of the same molecule?
**A.** The value was 4.1e+06 g/M/s and 2.18e+06 g/M/s.

**Q.** What about the “koff (CO)” value (wt Tt H-NOX [3]) of the same molecule?
**A.** Its value is 0.5 s⁻¹.

**Q.** And the “kon (CO)” value (wt Tt H-NOX [3])?
**A.** Its value is 3.3e+06 M⁻¹ s⁻¹.

**Q.** What about the Kd (wt Tt H-NOX [3]; read-out: KD (CO)) of the same molecule?
**A.** Its Kd is 160 nM.

**Q.** And the “koff (CO)” value (wt Cb H-NOX [4])?
**A.** The value was 1.0 s⁻¹.

**Q.** And the “kon (CO)” value (wt Cb H-NOX [4])?
**A.** Its value is 1.5e+06 M⁻¹ s⁻¹.

**Q.** What about the Kd (wt Cb H-NOX [4]; read-out: KD (CO)) of the same molecule?
**A.** The Kd was 670 nM.

**Q.** What about the “kon (CO)” value (wt Cb H-NOX [5]) of the same molecule?
**A.** Its value is 1.5 × 10^6d M^−1 s^−1.

**Q.** Which “koff (O2)” value (wt Tt H-NOX [1]) does the source give for `O=O` [O2, oxygen] here?
**A.** Its value is 1.2^f s^−1 and 1.2^e s^−1.

**Q.** And the “kon (O2)” value (wt Tt H-NOX [1])?
**A.** The value was 2.5 × 10^7f M^−1 s^−1 and 1.36 × 10^7e M^−1 s^−1.

**Q.** And the Kd (wt Tt H-NOX [1]; read-out: KD (O2))?
**A.** Its Kd is 0.048 µM and 0.0897 µM.

**Q.** And the “koff (O2)” value (wt Tt H-NOX [3])?
**A.** Its value is 1.9 s⁻¹.

**Q.** What about the “kon (O2)” value (wt Tt H-NOX [3]) of the same molecule?
**A.** The value was 4.3e+07 M⁻¹ s⁻¹.

**Q.** What about the Kd (wt Tt H-NOX [3]; read-out: KD (O2)) of the same molecule?
**A.** Its Kd is 44 nM.

**Q.** What about the Kd (wt Cb H-NOX [4]; read-out: KD (O2)) of the same molecule?
**A.** The Kd was 53000 nM.
